This is an account of results in US20220241314A1, “COMPOSITIONS AND METHODS FOR TREATMENT OF HEPATITIS B VIRUS INFECTION” (priority 2019, published 2022).

Read-outs that look alike come from different tables or passages of the source. {ppp} = triphosphate

Data set [1] deals with IRF3. Description: Immunofluorescence analysis of IRF3 translocation. The data set is classed as cell-based, human. The note with it: HepG2-hNTCP cells, 24 hours; F7 10 μM; poly-U/UC PAMP or X-RNA 200 ng/ml in liposome.
Data set [2] deals with HBV cccDNA. Description: HBV cccDNA formation in infected HepG2-hNTCP cells (Hirt extraction, Southern blot, RT-qPCR). In kind it is cell-based, HBV (Genotype D). Conditions: harvested 3 dpi; for level of protein free-relaxed circular (PF-RC) DNA, Southern blot / HBV cccDNA formation, Southern blot: HepG2-hNTCP, treated following HBV infection; for HBV cccDNA formation, Southern blot: versus DMSO or X-RNA controls; for IC50 / IC90: HBV 1000 Geq/cell; for IC50: read-out: IC50, decline of cccDNA relative to DMSO treated controls; for IC90: read-out: IC90, decline of cccDNA relative to DMSO treated controls. On the procedure:
The scheme illustrates the schedule with HBV inoculum (1000 Geq/cell) and administration of Cyclosporin A (CsA), F7, X-RNA and poly-U/UC PAMP. 2.5% DMSO was added to the medium at 1 day post infection (Dpi). cccDNA and PF RC DNA were harvested from HepG2-hNTCP cells using Hirt extraction method and analyzed by Southern blot analysis using an HBV-specific DNA probe. Viral protein-free DNAs (protein-free Relaxed Circular DNA [PF-RC DNA] and cccDNA) are noted. (2B and 2C) HepG2-hNTCP 2(B) or differentiated HepaRG cells (2C) were infected with HBV at moi of 1000 Geq/cell, and administered CsA (10 μM) or F7, in the indicated concentrations. For upper panels of (2B) and (2C), DNAs were isolated after Hirt extraction at 3 dpi and subjected to Southern blot analysis using as HBV-DNA probe. […] (2D and 2E) HepG2-hNTCP (2D) or dHepaRG cells (2E) were infected with HBV at an moi of 1000 Geq/cell, and administered CsA (10 μM), X-RNA (100 ng/ml), or poly-U/UC PAMP in the indicated concentrations. For upper panels of (2D) and (2E), DNAs were analyzed using Southern blot analysis. For lower panels of (2D) and (2E), DNAs were analyzed by RT-qPCR. IC90, and IC50 values were calculated based on the decline of the cccDNA relative to DMSO treated controls. IC90, and IC50 values are the average of three experiments±one standard deviation. […] Positions of mass markers are indicated on each Southern blot.
To determine how IRF3 activation impacts HBV infection and production of cccDNA in infected cells, HepG2-hNTCP cells were treated with F7 or poly-U/UC PAMP (100 ng/ml [=2.94 nM] or 200 ng/ml [=5.87 nM]) following HBV infection. Cyclosporin A (CsA) treatment was employed as an HBV entry inhibitor antiviral control (Watashi, K., et al. (2014). Cyclosporin A and its analogs inhibit hepatitis B virus entry into cultured hepatocytes through targeting a membrane transporter, sodium taurocholate cotransporting polypeptide (NTCP). Hepatology (Baltimore, Md.) 59, 1726-1737). Cells were harvested 3 days post-infection (dpi) and extracts were prepared using Hirt extraction methods for isolating protein-free DNA, as shown in FIG. 2A (Guo, H., et al. (2007). Characterization of the Intracellular Deproteinized Relaxed Circular DNA of Hepatitis B Virus: an Intermediate of Covalendy Closed Circular DNA Formation. Journal of Virology 81, 12472-12484 Hirt, B. (1967). Selective extraction of polyoma DNA from infected mouse cell cultures. Journal of molecular biology 26, 365-369).
HBV infection HBV (Genotype D) was purified from the supernatant of HepAD38 cells by PEG concentration and subsequent sucrose gradient, as described previously (Ko, C., et al. (2014). DDX3 DEAD-Box RNA Helicase Is a Host Factor That Restricts Hepatitis B Virus Replication at the Transcriptional Level. Journal of Virology 88, 13689-13698; Watashi, K., et al. (2013), supra). For HBV infection cells were seeded into collagen-coated plates. One day later, the cells were infected with HBV in DMEM containing 4% polyethylene glycol 8000 (PEG-8000). The multiplicities of infection (expressed as virus genome equivalent/cell) are indicated in each Figure Legend. The inocula were removed 24 hours later, and the infected cultures were maintained in complete DMEM containing 2.5% DMSO until harvesting, as described previously (Ni, Y., et al. (2014). Hepatitis B and D viruses exploit sodium taurocholate co-transporting polypeptide for species-specific entry into hepatocytes. Gastroenterology 146, 1070-1083).
Reverse transcription quantitative real time qPCR (RT-qPCR) analysis: Total cellular RNAs were extracted from cells using TRIZOL reagent and the manufacturers protocol (Invitrogen). cDNA was synthesized from the purified RNA by both random and oligo (dT) priming using iScript select cDNA synthesis kit (Biorad, Inc.). For HBV cccDNA expression analysis, total DNA was extracted using the DNeasy kit (QIAGEN).
A general note: Quantitative PCR measures a nucleic acid by following its amplification.

The subject of data set [3] is innate immune response genes. Description: Innate immune gene mRNA expression (RT-qPCR). In kind it is cell-based, human. The note with it: HepG2-hNTCP cells, 24 and 72 hours.
The mark [4] stands for this setting: Hepatitis B virus, HepG2-hNTCP cells.

Regarding `O=C(Nc1ccc2nc(NC(=O)c3ccc4ccccc4c3)sc2c1)c1ccccc1` [F7, N-(6-benzamido-1,3-benzothiazol-2-yl)naphthalene-2-carboxamide], in data set [1], the “innate immune activation marked by IRF3 translocation into the nucleus” value was “specifically induced innate immune activation”. For the same molecule, in data set [2], the “level of protein free-relaxed circular (PF-RC) DNA, Southern blot” value is given as “markedly decreased” and the “HBV cccDNA formation, Southern blot” value is listed as “suppressed HBV cccDNA formation”. In data set [2] (setting [4]), the concentration for half-maximal inhibition (IC50) (usually the concentration that inhibits the measured activity by half) is around 8.48 µM and the IC90 (as a rule, the concentration at which the effect reaches the 90% level) is around 17.4 µM. For the same molecule, the “mRNA expression of innate immune response genes (IFNs, ISGs, IRF3-target genes)” value in data set [3] is listed as “induced only IRF3-target gene expression”.

B1: poly-U/UC PAMP: ~100 nt PAMP motif from the HCV genome comprising 5′ppp and the poly U/UC region, recognized by RIG-I; formulated in liposome (nucleic acid)
chain: GGCCAUCCUGUUUUUUUCCCUUUUUUUUUUUCUUUUUUUUUUUUUUUUUUUUUUUUUUUUUUUUUUCUCCUUUUUUUUUCCUCUUUUUUUCCUUUUCUUUCCUUU
modifications: RNA, 5' {ppp}, backbone and methylation of C not given here; formulated in liposome
notes: ~100 nt PAMP motif from the HCV genome comprising 5′ppp and the poly U/UC region, recognized by RIG-I; formulated in liposome
B1: in data set [1], the “innate immune activation marked by IRF3 translocation into the nucleus” value is on record as “specifically induced innate immune activation”. Also, in data set [2] (HepG2-NTCP cells), the half-inhibitory concentration (IC50) is around 0.00194 µM and the concentration for an effect of 90% (IC90) was around 0.012 µM. Moreover, in data set [2], the “level of protein free-relaxed circular (PF-RC) DNA, Southern blot” value is “markedly decreased” and the “HBV cccDNA formation, Southern blot” value was “suppressed HBV cccDNA formation”. The “mRNA expression of innate immune response genes (IFNs, ISGs, IRF3-target genes)” value in data set [3] is “induced type I and type III IFN and ISG expression”.
